Data published in US20160075667A1, “COMPOSITIONS AND METHODS FOR CHEMICAL EXCHANGE SATURATION TRANSFER (CEST) MAGNETIC RESONANCE IMAGING (MRI)” (The Johns Hopkins University, priority 2013, published 2016).

Assay: Phantom calibration: CEST MTRasym spectra of I45DC-(Glu)2 in PBS
Format: physicochemical
Details: pH 5.4 to 7.5
Experimental: I45DC-(Glu)2 was dissolved in PBS with conc. of 50 mM, 25 mM, 12 mM and 6.25 mM and pH from 5.4 to 7.5.
Images were taken on Bruker 11.7T scanners, using a RARE sequence with CW saturation pulse of B1=5.9 uT, Tsat=3 s. For phantoms, saturation frequency incremented every 0.3 ppm from −15 to 15 ppm with TR/TE=6000 ms/17 ms, matrix size=64×48. For in vivo, an axial slice across both kidney carlyx was chosen with thickness of 1.5 mm CEST images with saturation frequencies of [±7.8 ppm, ±7.5 ppm, ±7.2 ppm] and [±4.8 ppm, ±4.5 ppm, ±4.2 ppm] for pH reference were acquired repeatedly every 10 min pre- and post-injection. Image parameters are similar as for phantom except for TR/TE=5 s/15 ms, and CEST contrast was quantified by
MTRasym=(S−Δω−S+Δω)/S−Δω.
CEST MTRasym spectra of I45DC-(Glu)2 (FIG. 5A) show 2 broad peaks centered at 7.5 ppm and 2.4 ppm, with the 7.5 ppm peak increasing as pH increases, while the 2.5 ppm-5 ppm part remains relatively constant. […] The linearity of the ratio using saturation B1=5.9 uT is better than B1=3.6 uT partially due to a relative fast exchange rate of the heterocyclic NH (kex=˜4000).

In the case of O=C[C@H](CCC(=O)O)NNC(=O)c1nc[nH]c1C(=O)NN[C@H](C=O)CCC(=O)O [I45DC-(Glu)2, 4,5-bis[(Glu)carbonyl]-1H-imidazole], the “ratio of the 7.5 ppm contrast to contrast at 4.8 ppm” value (6.25-50 mM) was “dependent on pH” and the “exchange rate of the heterocyclic NH (kex)” value was ~4000.
